From US9132099B2, “Medical implants and methods for regulating the tissue response to vascular closure devices” (Vascular Therapies LLC, priority 2001, dated 2015)
Starred links: 1 amine or outer side, 2 acyl side, 3 side chain; linkers in the order of their positions; H or OH if unused. Positions of bridges follow the written chain, without caps; N, C: chain ends. Non-standard residues stand in square brackets, D forms with d. Residues, ends and D or L forms follow the SMILES beside them. Chains are numbered I, II in the order given. Actinocin(9to1) = Cc1c2oc3c(C)ccc(C(=O)[*:1])c3nc-2c(C(=O)[*:2])c(N)c1=O; NMeV = CN[C@H](C(=O)O)C(C)C; Sar = CNCC(=O)O

Assays:
[1] = test system: Human Endothelial Cells; test: [3H]-thymidine uptake assay, human endothelial cells; format: cell-based
Description: (§1) Human smooth muscle cells and endothelial cells (Cambrex Corp., formerly Clonetics Corp., East Rutherford, N.J.) were seeded (100,000 cells) in 24-well plates overnight. Both cell types were grown and maintained in Opti-MEM (Invitrogen, Carlsbad, Calif.) and 5% fetal bovine serum at 37° C. in a 5% carbon dioxide and 95% atmospheric air. […] Each cell type was allowed to grow for […], last four hours in the presence of [^3H]-thymidine.
(§2) Proliferation of cells was quantified as new DNA synthesis using [^3H]-thymidine uptake assay. After 72 hours of culture, cells were washed twice with cold phosphate buffered saline (PBS), and 1 ml of methanol was added to the contents of each well. The plates were kept at 4° C. for 60 minutes, the cells then washed once with cold PBS, and 500 μl of 0.2 m M NaOH was added to each well, and the plates kept at 4° C. for 30 minutes. The contents of each well were transferred into scintillation vials, and liquid scintillation fluid was added to quantify radioactivity using a liquid scintillation counter and the results expressed as counts per minute. Results are shown in Tables 12 and 13 and corresponding FIGS. 16 and 17, respectively.

[2] = test system: Human Smooth Muscle Cells; test: [3H]-thymidine uptake assay, human smooth muscle cells; format: cell-based
Description: as §1, §2

[3] = test system: Collagenase; test: Collagenase activity in culture media, chromogenic substrate hydrolysis; format: biochemical; conditions: aliquots of media, five days, plain matrix = 100
Description: (§3) Prefabricated collagen matrices were placed in different antiproliferative drug solutions until complete saturation occurred. […] The collagen matrices were saturated with these compounds at a concentration of 25 μg/ml lyophilized, washed with 0.066 M phosphate buffer of pH 7.4 at 37° C. for 24 hours and cut in the shape of a disc with density of compound of about 5 μg/cm^2. After washing, sterile discs 15 mm in diameter were placed in a 24-well culture plate, and cells were seeded at a density of 5,000/cm^2. Five days later, cell number was counted and enzymatic activity evaluated in the aliquots of media by chromogenic substrate hydrolysis and spectrophotometry. Among the tested agents in this comparative in vitro test, paclitaxel and rapamycin (sirolimus) performed similarly.

[4] = test system: Elastase; test: Elastase activity in culture media, chromogenic substrate hydrolysis; format: biochemical; conditions: aliquots of media, five days, plain matrix = 100
Description: as §3, with “spectrophotometry.” for “spectrophotometry. Among the tested agents in this comparative in vitro test, paclitaxel and rapamycin (sirolimus) performed similarly.”

[5] = test system: SMC; test: Smooth muscle cell inhibition on drug-saturated collagen matrix discs; format: cell-based; conditions: collagen matrix disc, compound about 5 μg/cm^2, cells counted five days later
Description: as §3, with “spectrophotometry.” for “spectrophotometry. Among the tested agents in this comparative in vitro test, paclitaxel and rapamycin (sirolimus) performed similarly.”

[6] = test system: Fibroblast; test: Fibroblast inhibition on drug-saturated collagen matrix discs; format: cell-based; conditions: collagen matrix disc, compound about 5 μg/cm^2, cells counted five days later
Description: as §3, with “spectrophotometry.” for “spectrophotometry. Among the tested agents in this comparative in vitro test, paclitaxel and rapamycin (sirolimus) performed similarly.”

[7] = test system: smooth muscle cell; test: Heparin inhibition of smooth muscle cell proliferation; format: cell-based
Excerpt: In addition, diffusion of heparin from the sleeve can prevent thrombotic events on the inner surface of the shunt and damaged vessel wall for longer periods of time. Furthermore, the concentration of soluble heparin can be increased up to 20,000 U/cm^2 without changing the mechanical characteristics of the matrix. Therefore, anti-smooth muscle cell proliferation as well as antithrombotic effect can be prolonged.

[8] = In vitro elution of heparin from collagen-fibrin sleeve with rapamycin and heparin; format: physicochemical; conditions: for Eluted Heparin Mass: buffer replenished each day
Excerpt: Combining macro- and micro-porosity may increase capacity of the device. Collagen and fibrin matrices were mixed to obtain such a combination. In addition, good mechanical characteristics of collagen improved stability of fibrin.
The collagen fibrin sheaths loaded with medicine (thickness 2 mm) were formed as tubular structures and externally crosslinked using high a concentration of glutaraldehyde (25%) for one minute. This sleeve was made planar on ten occasions, and the spiral shape was restored each time. […] In vitro elution of heparin continues for seven days. Heparin concentration was measured as in Example 10. Buffer for the dilution was replenished each day.

[9] = test system: PTFE vascular graft AV loop, venous anastomosis; test: Porcine PTFE arterio-venous graft model with perivascular rapamycin collagen sleeve; format: in vivo; conditions: pigs
Description: A proof of principle study was performed using a porcine model. A total of six pigs were studied, two as controls and four as treated. A 6 mm PTFE vascular graft was anastomosed between the carotid artery on one side and the contralateral jugular vein. This created an arterio-venous (AV) loop that is similar in construction to the human hemodialysis access loop.
The animals were euthanized and the relevant segments dissected. […] Tissues from treated and untreated animals were obtained, and RNA was prepared and reverse transcribed to cDNA, which was amplified for housekeeping gene b-actin and p21 by PCR.

[10] = Rate of drug release from collagen matrix in vitro, batch assay; format: physicochemical; conditions: collagen matrix saturated with the drug
Description: Aliquots are collected at various time intervals from the wells. A combination of dispersed and conjugated forms is also prepared. […] The samples are placed in wells and 1 ml of elution media containing serum are added. Aliquots are taken every hour.
These measurements are made using batch assay and, therefore, represent release rates at 0 ml/min flow rate. The results are tabulated in Table 7 and graphically illustrated in FIG. 14. Concentrations of the antiproliferative drug are in μg/ml.

[11] = test system: smooth muscle cells; test: Growth of smooth muscle cells seeded on collagen matrices; format: cell-based; conditions: with changes of media, 7 days observation
Description: To evaluate this parameter, smooth muscle cells at a density of 5,000 cells/cm^2 are seeded onto control tissue culture surface and testing matrices.

[12] = test system: smooth muscle cell; test: Inhibitory concentrations for smooth muscle cell in culture media
[13] = test system: PTFE A-V graft, venous anastamosis; test: PTFE A-V graft study, histological scoring of graft explants; format: in vivo
Excerpt: A 6.0 mm PTFE graft was anastamosed between the carotid artery and the jugular vein. A total of 19 animals were utilized for this study. At the time of surgical construction of the A-V graft, collagen matrix with or without the drug was implanted at the site of venous anastamosis. Five animals served as controls (Group A, plain collagen matrix, no drug); the remaining 14 animals received treatment. They were divided into two equal groups (B and C) of seven animals each. […] Animals (n=13) were euthanized after 1 month. Tissues were formalin fixed and sent for histology.
Histological assessment of graft explants was performed by examining the following components: (1) the venous anastamotic site; (a) luminal and (b) adventitial surfaces, (2) the venous end away from the anastamosis; (c) luminal and (d) adventitial surfaces and (3) the PTFE graft; (e) luminal and (f) abluminal surfaces away from the anastamosis (FIG. 2). The following parameters were evaluated: intimal thickening, inflammation, thrombus, fibrosis, hemorrhage/fibrin and calcification or any other pathological changes observed. Histological evaluation was scored on a 0 through 4 scale, where 0=no significant change, 1=minimal, 2=mild, 3=moderate and 4=severe.
P-values obtained from semiquantitative analysis of histological findings using ANOVA (t-test unpaired).

[14] = In vitro elution of dexamethasone from collagen matrix; conditions: by HPLC

Row | Molecule | effect on proliferation (new DNA synthesis) [1] | effect on proliferation (new DNA synthesis) [2] | Collagenase Activity % [3] | Elastase Activity % [4] | SMC Inhibition % [5] | Fibroblast Inhibition % [6] | further results
1 | CC(=O)O[C@H]1C(=O)[C@@]2(C)[C@H]([C@H](OC(=O)c3ccccc3)[C@]3(O)C[C@H](OC(=O)[C@H](O)[C@@H](NC(=O)c4ccccc4)c4ccccc4)C(C)=C1C3(C)C)[C@]1(OC(C)=O)CO[C@@H]1C[C@@H]2O [Paclitaxel] | inhibit proliferation | inhibit proliferation | 98 ± 5% | 90 ± 4% | 88 ± 6% | 62 ± 11% | –
2 | Heparin | – | – | – | – | – | – | concentration that effectively inhibits smooth muscle cell proliferation [7]: about 100 u/ml; duration of in vitro elution of heparin [8]: seven; Eluted Heparin Mass ([8]; Time 0 days): 0 u/ml; Eluted Heparin Mass ([8]; Time 1 days): 341 u/ml; Eluted Heparin Mass ([8]; Time 2 days): 275 u/ml; Eluted Heparin Mass ([8]; Time 3 days): 188 u/ml; Eluted Heparin Mass ([8]; Time 4 days): 103 u/ml; Eluted Heparin Mass ([8]; Time 5 days): 57 u/ml; Eluted Heparin Mass ([8]; Time 6 days): 24 u/ml; Eluted Heparin Mass ([8]; Time 7 days): 8 u/ml; time for which eluted heparin can significantly inhibit smooth muscle cell proliferation ([8]; from the elution profile and about 100 u/ml): at least four
3 | CO[C@H]1C[C@@H]2CC[C@@H](C)[C@@](O)(O2)C(=O)C(=O)N2CCCC[C@H]2C(=O)O[C@H]([C@H](C)C[C@@H]2CC[C@@H](O)[C@H](OC)C2)CC(=O)[C@H](C)/C=C(\C)[C@@H](O)[C@@H](OC)C(=O)[C@H](C)C[C@H](C)/C=C/C=C/C=C/1C [Rapamycin, (3S,6R,7E,9R,10R,12R,14S,15E,17E,19E,21S,23S,26R,27R,34aS)-9,10,12,13,14,21,22,23,24,25,26,27,32,33,34,34a-hexadecahydro-9,27-dihydroxy-3-[(1R)-2[(1S,3R,4R)-4-hydroxy-3-methoxycyclohexyl]-1-methylethyl]10,21-dimethoxy-6,8,12,14,20,26-hexamethyl-23,27-epoxy-3H-pyrido[2,1-c][1,4] oxaazacyclohentriacontine-1,5,11,28,29 (4H,6H,31H)-pentone] | inhibit proliferation | inhibit proliferation | 137 ± 8% | – | 94 ± 5% | 90 ± 12% | Expression of p21 mRNA in venous tissue at the perianastamotic site ([9]; 30 days, PCR, not in controls): observed; neointimal hyperplasia at venous anastomosis ([9]; collagen sleeve approximately 500 μg/cm^2, 30 days): minimal to absent; luminal patency of the vein and the graft ([9]; collagen sleeve approximately 500 μg/cm^2, 30 days, vs controls): significantly higher luminal patency; time of peak release from saturated collagen matrix [10]: about seven; duration of suppression of cell growth [11]: suppression of cell growth continued throughout the observation period; Inhibitory concentrations for smooth muscle cell [12]: 0.001 to 0.005 µg/mL; Collagen degradation ([13]; Dose 2 compared with the control group): significant; degree of fibrosis ([13]; control group vs. treatment groups): significant difference; degree of inflammation ([13]; treated vs controls): no statistical difference
4 | C[C@@H]1C[C@H]2[C@@H]3CCC4=CC(=O)C=C[C@]4(C)[C@@]3(F)[C@@H](O)C[C@]2(C)[C@@]1(O)C(=O)CO [Dexamethasone] | – | – | – | – | – | – | Chemical stability through sheet formation, drying storage, and elution process [14]: confirmed
5 | CN(C)[C@@H]1C(O)=C(C(N)=O)C(=O)[C@@]2(O)C(O)=C3C(=O)c4c(O)cccc4[C@@](C)(O)[C@H]3C[C@@H]12 [Tetracycline] | – | – | – | – | 11 ± 8% | 13 ± 5% | –
6 | Cc1c2oc3c(C)ccc(C(=O)N[C@@H]4C(=O)N[C@H](C(C)C)C(=O)N5CCC[C@H]5C(=O)N(C)CC(=O)N(C)[C@@H](C(C)C)C(=O)O[C@@H]4C)c3nc-2c(C(=O)N[C@@H]2C(=O)N[C@H](C(C)C)C(=O)N3CCC[C@H]3C(=O)N(C)CC(=O)N(C)[C@@H](C(C)C)C(=O)O[C@@H]2C)c(N)c1=O [Actinomycin D] (I: T[dV]P[Sar][NMeV] / II: T[dV]P[Sar][NMeV]; ester I:1-I:C, II:1-II:C; linker I:N-II:N via Actinocin(9to1)) | – | – | 55 ± 9% | 84 ± 11% | 44 ± 11% | 35 ± 8% | duration of suppression of cell growth [11]: suppresses cell growth for only a short period of time
7 | C=CC[C@@H]1/C=C(\C)C[C@H](C)C[C@H](OC)[C@H]2O[C@@](O)(C(=O)C(=O)N3CCCC[C@H]3C(=O)O[C@H](/C(C)=C/[C@@H]3CC[C@@H](O)[C@H](OC)C3)[C@H](C)[C@@H](O)CC1=O)[C@H](C)C[C@@H]2OC [Tacrolimus] | sparing endothelial cells | preferentially inhibit new DNA synthesis in human smooth muscle cells | – | – | – | – | –
8 | CN(Cc1cnc2nc(N)nc(N)c2n1)c1ccc(C(=O)N[C@@H](CCC(=O)O)C(=O)O)cc1 [Methotrexate] | – | – | 23 ± 12% | 14 ± 3% | 32 ± 9% | 28 ± 6% | –
